Reference: ChEMBL document CHEMBL5385885, “4-(5-Amino-pyrazol-1-yl)benzenesulfonamide derivatives as novel multi-target anti-inflammatory agents endowed with inhibitory activity against COX-2, 5-LOX and carbonic anhydrase: Design, synthesis, and biological assessments” (Eur J Med Chem, 2023)
One block for each compound: values may come before it.

Legend:
[1] = molecular target: Prostaglandin G/H synthase 1 (Homo sapiens, UniProt P23219)
[2] = Ulcerogenic activity in Albino mouse assessed as histopathological change in stomach by H and E staining based analysis; assay type: toxicity; details: in vivo
Mus musculus [3] = species: Mus musculus; experiment: Analgesic activity in mouse assessed reduction in number of acetic acid-induced writhing measured for 20 mins (reference value: 40 +/- 2.9); assay type: functional
Rattus norvegicus [4] = experiment: Anti-inflammatory activity in carrageen-induced paw edema rat model assessed as change in paw height measured immediately (reference value: 0.56 +/- 0.05 %); assay type: functional
Rattus norvegicus [5] = experiment: Anti-inflammatory activity in carrageen-induced paw edema rat model assessed as inhibition of edema measured after 3 hrs relative to control; assay type: functional
Mus musculus [6] = species: Mus musculus; experiment: Analgesic activity in mouse assessed protection against acetic acid-induced writhing measured for 20 mins relative to control; assay type: functional
Rattus norvegicus [7] = experiment: Anti-inflammatory activity in carrageen-induced paw edema rat model assessed as change in paw height measured after 2 hrs (reference value: 0.64 +/- 0.05 %); assay type: functional
Rattus norvegicus [8] = experiment: Anti-inflammatory activity in carrageen-induced paw edema rat model assessed as change in paw height measured after 1 hr (reference value: 0.68 +/- 0.04 %); assay type: functional
Rattus norvegicus [9] = experiment: Anti-inflammatory activity in carrageen-induced paw edema rat model assessed as change in paw height measured after 3 hrs (reference value: 0.78 +/- 0.08 %); assay type: functional
Carbonic anhydrase 2 = Carbonic anhydrase 2 (Homo sapiens, UniProt P00918); experiment: Binding affinity to human CA2 assessed as inhibition constant by stopped flow kinetic assay
Carbonic anhydrase 12 = Carbonic anhydrase 12 (Homo sapiens, UniProt O43570); experiment: Binding affinity to human CA12 assessed as inhibition constant by stopped flow kinetic assay
Sequence of Carbonic anhydrase 12 (O43570 whole entry): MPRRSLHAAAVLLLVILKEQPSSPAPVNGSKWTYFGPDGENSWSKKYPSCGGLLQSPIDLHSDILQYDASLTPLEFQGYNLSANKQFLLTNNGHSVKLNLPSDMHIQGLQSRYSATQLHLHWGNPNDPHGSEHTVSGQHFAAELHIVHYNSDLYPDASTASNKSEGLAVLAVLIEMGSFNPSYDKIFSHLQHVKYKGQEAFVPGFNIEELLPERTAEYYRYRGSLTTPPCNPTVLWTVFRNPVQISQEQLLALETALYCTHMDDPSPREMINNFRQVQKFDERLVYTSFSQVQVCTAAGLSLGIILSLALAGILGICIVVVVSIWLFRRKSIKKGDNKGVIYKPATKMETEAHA

Carbonic anhydrase 9 = Carbonic anhydrase 9 (Homo sapiens, UniProt Q16790); experiment: Binding affinity to human CA9 assessed as inhibition constant by stopped flow kinetic assay
Carbonic anhydrase 1 = Carbonic anhydrase 1 (Homo sapiens, UniProt P00915); experiment: Binding affinity to human CA1 assessed as inhibition constant by stopped flow kinetic assay
Sequence of Carbonic anhydrase 1 (P00915 whole entry): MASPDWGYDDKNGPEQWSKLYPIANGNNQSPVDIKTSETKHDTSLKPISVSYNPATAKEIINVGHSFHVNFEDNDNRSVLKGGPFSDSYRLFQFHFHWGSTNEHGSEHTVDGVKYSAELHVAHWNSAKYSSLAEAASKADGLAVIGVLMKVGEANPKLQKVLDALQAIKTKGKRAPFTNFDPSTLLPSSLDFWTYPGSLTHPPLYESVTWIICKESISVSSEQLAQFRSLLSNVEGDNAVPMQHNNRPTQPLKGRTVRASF

[10] = Ulcerogenic activity in Albino mouse assessed as inflammation in stomach by H and E staining based analysis; assay type: toxicity; details: in vivo

Sequence of Prostaglandin G/H synthase 1 (P23219 whole entry): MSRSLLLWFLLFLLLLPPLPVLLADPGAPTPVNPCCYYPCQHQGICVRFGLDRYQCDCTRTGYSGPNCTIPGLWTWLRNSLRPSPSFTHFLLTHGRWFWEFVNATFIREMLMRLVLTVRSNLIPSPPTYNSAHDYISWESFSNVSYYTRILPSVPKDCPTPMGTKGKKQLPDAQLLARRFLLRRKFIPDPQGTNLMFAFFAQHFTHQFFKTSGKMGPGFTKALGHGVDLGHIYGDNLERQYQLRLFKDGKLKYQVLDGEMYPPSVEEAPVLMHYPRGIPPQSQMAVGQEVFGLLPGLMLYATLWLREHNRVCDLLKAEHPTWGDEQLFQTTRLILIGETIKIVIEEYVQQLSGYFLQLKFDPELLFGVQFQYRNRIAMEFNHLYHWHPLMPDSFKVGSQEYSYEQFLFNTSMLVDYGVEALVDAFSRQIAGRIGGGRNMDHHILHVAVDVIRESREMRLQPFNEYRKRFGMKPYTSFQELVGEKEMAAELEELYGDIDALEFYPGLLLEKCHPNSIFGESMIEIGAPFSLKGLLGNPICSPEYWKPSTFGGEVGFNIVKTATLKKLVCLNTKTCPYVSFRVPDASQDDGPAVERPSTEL

IC50 [1]: 7 µM
Compound: CN(C)c1ccc(/C=N/NC(=O)c2cnn(-c3ccc(S(N)(=O)=O)cc3)c2N)cc1

IC50 [1]: 6 µM
Compound: COc1ccc(/C=N/NC(=O)c2cnn(-c3ccc(S(N)(=O)=O)cc3)c2N)cc1

IC50 [1]: 5 µM
Compound: Nc1c(C(=O)N/N=C/c2cccc([N+](=O)[O-])c2)cnn1-c1ccc(S(N)(=O)=O)cc1

IC50 [1]: 5 µM
Compound: Nc1c(C(=O)N/N=C/c2ccc([N+](=O)[O-])cc2)cnn1-c1ccc(S(N)(=O)=O)cc1

IC50 [1]: 10.4 µM
Compound: Nc1c(C(=O)N/N=C/c2ccccc2)cnn1-c1ccc(S(N)(=O)=O)cc1
Activity [2]: Non-Toxic

IC50 [1]: 4.8 µM
Compound: Nc1c(C(=O)N/N=C/c2ccccc2[N+](=O)[O-])cnn1-c1ccc(S(N)(=O)=O)cc1

Compound: Cc1ccc(-c2cc(C(F)(F)F)nn2-c2ccc(S(N)(=O)=O)cc2)cc1 [CELECOXIB]
Activity (Mus musculus [3]): 16
Activity (Rattus norvegicus [4]): 0.5%
inhibition (INH) (Rattus norvegicus [5]): 38.5%
Activity (Mus musculus [6]): 60%
Activity [2]: Non-Toxic
Activity (Rattus norvegicus [7]): 0.52%
Activity (Rattus norvegicus [8]): 0.44%
Activity (Rattus norvegicus [9]): 0.48%

Ki (Carbonic anhydrase 2): 0.0269 µM
Ki (Carbonic anhydrase 12): 0.0058 µM
IC50 [1]: 12.5 µM
Ki (Carbonic anhydrase 9): 0.0489 µM
Ki (Carbonic anhydrase 1): 0.134 µM
Compound: Nc1c(C(=O)N/N=C/c2ccc(O)cc2)cnn1-c1ccc(S(N)(=O)=O)cc1
Activity (Mus musculus [3]): 19
Activity (Rattus norvegicus [4]): 0.48%
inhibition (INH) (Rattus norvegicus [5]): 31%
Activity (Mus musculus [6]): 52.5%
Activity [2]: Non-Toxic
Activity (Rattus norvegicus [7]): 0.62%
Activity (Rattus norvegicus [8]): 0.52%
Activity (Rattus norvegicus [9]): 0.54%

IC50 [1]: 8 µM
Compound: Nc1c(C(=O)N/N=C/c2ccc(Cl)cc2)cnn1-c1ccc(S(N)(=O)=O)cc1

IC50 [1]: 9.5 µM
Compound: Nc1c(C(=O)N/N=C/c2cccs2)cnn1-c1ccc(S(N)(=O)=O)cc1

Compound: O=C(O)Cc1ccccc1Nc1c(Cl)cccc1Cl [DICLOFENAC]
Activity (Mus musculus [3]): 12
Activity (Rattus norvegicus [4]): 0.52%
inhibition (INH) (Rattus norvegicus [5]): 59%
Activity (Mus musculus [6]): 70%
Activity [2]: Toxic
Activity (Rattus norvegicus [7]): 0.32%
Activity [10]: Toxic
Activity (Rattus norvegicus [8]): 0.28%
Activity (Rattus norvegicus [9]): 0.32%

IC50 [1]: 10.5 µM
Compound: Nc1c(C(=O)N/N=C/c2ccccc2Cl)cnn1-c1ccc(S(N)(=O)=O)cc1
